The experiment concerns the target HPK1 (Homo sapiens (Human), UniProt Q92918). Briefly: HPK1 Kinase Binding Assay. The following applies: LanthaScreen tracer 222 binding, active HPK1, one hour incubation at 25° C. Put shortly:
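Active HPK1 (added as 4 nM solution) was combined with compound (3-fold, 11-point series) and tracer 222 (18 nM) plus Eu-anti-GST antibody (4 nM) in 50 mM HEPES pH 7.5 with MgCl2 and DTT. After 1 h at 25 °C plates were read. Ki values were derived.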
On the technique in general: Time-resolved FRET reads energy transfer from a long-lived donor to a nearby acceptor.

As usually defined, the Ki is a measure of affinity in units of concentration, obtained from inhibition or displacement. A high value points to lower affinity.

Structures are written as SMILES. Bounds are passed on as bounds.

Sequence of HPK1 (Q92918 1-346): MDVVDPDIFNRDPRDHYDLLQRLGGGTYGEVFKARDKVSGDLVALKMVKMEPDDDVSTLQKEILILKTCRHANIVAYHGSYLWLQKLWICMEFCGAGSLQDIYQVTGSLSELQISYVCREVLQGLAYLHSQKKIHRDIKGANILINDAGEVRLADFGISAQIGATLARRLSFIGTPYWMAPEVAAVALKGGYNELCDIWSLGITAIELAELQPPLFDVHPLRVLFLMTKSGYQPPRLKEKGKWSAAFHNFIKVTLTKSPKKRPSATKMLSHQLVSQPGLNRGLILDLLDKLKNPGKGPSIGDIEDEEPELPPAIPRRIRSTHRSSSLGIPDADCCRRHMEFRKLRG

For `COc1cccc(F)c1-c1ncc2[nH]nc(-c3ccc(CN4CCOCC4)cc3)c2n1` [Example 24, 4-(4-(5-(2-Fluoro-6-methoxyphenyl)-1H-pyrazolo[4,3-d]pyrimidin-3-yl)benzyl)morpholine], the inhibitory constant (Ki) is no more than 100 nM.
As for `COc1cccc(F)c1-c1ncc2[nH]nc(-c3ccc(N4CCNCC4)nc3)c2n1` [Example 52, 5-(2-Fluoro-6-methoxyphenyl)-3-(6-(piperazin-1-yl)pyridin-3-yl)-1H-pyrazolo[4,3-d]pyrimidine], the Ki was no more than 100 nM.
In turn, `CNC(=O)c1ccc(-c2n[nH]c3cnc(-c4c(F)cccc4OC)nc23)cc1` [Example 38, 4-(5-(2-Fluoro-6-methoxyphenyl)-1H-pyrazolo[4,3-d]pyrimidin-3-yl)-N-methylbenzamide] yielded a Ki of no more than 100 nM.
Take `CN1CCN(c2ccc(-c3n[nH]c4cnc(-c5ccccc5F)nc34)cc2)CC1` [Example 1, 5-(2-Fluorophenyl)-3-[4-(4-methylpiperazin-1-yl)phenyl]-1H-pyrazolo[4,3-d]pyrimidine]: the Ki is no more than 100 nM.
Under `COc1cccc(F)c1-c1ncc2[nH]nc(-c3ccncc3)c2n1` [Example 15, 5-(2-Fluoro-6-methoxyphenyl)-3-(pyridin-4-yl)-1H-pyrazolo[4,3-d]pyrimidine] stands no more than 100 nM.
`O=S(=O)(c1ccc(-c2n[nH]c3cnc(-c4c(F)cc5c(c4F)CNCC5)nc23)cc1)N1CCC1` [Example 96, 7-(3-(4-(Azetidin-1-ylsulfonyl)phenyl)-1H-pyrazolo[4,3-d]pyrimidin-5-yl)-6,8-difluoro-1,2,3,4-tetrahydroisoquinoline] gave a Ki of no more than 100 nM.
Regarding `CN1CCN(c2ccc(-c3n[nH]c4cnc(-c5c(F)cccc5Cl)nc34)cc2)CC1` [Example 4, 5-(2-Chloro-6-fluorophenyl)-3-(4-(4-methylpiperazin-1-yl)phenyl)-1H-pyrazolo[4,3-d]pyrimidine], the inhibition constant (Ki) was no more than 100 nM.
The figure for `COc1cccc(F)c1-c1ncc2[nH]nc(-c3ccc(N4CCN(C)CC4)cc3)c2n1` [Example 11, 5-(2-Fluoro-6-methoxyphenyl)-3-(4-(4-methylpiperazin-1-yl)phenyl)-1H-pyrazolo[4,3-d]pyrimidine] is no more than 100 nM; for `COc1cccc(F)c1-c1ncc2[nH]nc(-c3cccc(N4CCNCC4)c3)c2n1` [Example 27, 5-(2-Fluoro-6-methoxyphenyl)-3-(3-(piperazin-1-yl)phenyl)-1H-pyrazolo[4,3-d]pyrimidine] it is no more than 100 nM.
As for `CN1CCN(c2ccc(-c3n[nH]c4cnc(-c5c(F)cc6c(c5F)CNCC6)nc34)cc2)CC1` [Example 99, 6,8-Difluoro-7-(3-(4-(4-methylpiperazin-1-yl)phenyl)-1H-pyrazolo[4,3-d]pyrimidin-5-yl)-1,2,3,4-tetrahydroisoquinoline], the Ki was no more than 100 nM.
Compound `CN1CCN(c2ccc(-c3n[nH]c4cnc(-c5cccnc5)nc34)cc2)CC1` [Example 5, 3-(4-(4-Methylpiperazin-1-yl)phenyl)-5-(pyridin-3-yl)-1H-pyrazolo[4,3-d]pyrimidine] had a Ki of no more than 100 nM.
Compound `CN1CCN(c2ccc(-c3n[nH]c4cnc(-c5cccc(F)c5F)nc34)cc2)CC1` [Example 44, 5-(2,3-Difluorophenyl)-3-(4-(4-methylpiperazin-1-yl)phenyl)-1H-pyrazolo[4,3-d]pyrimidine] gave a Ki of no more than 100 nM.
For `Cc1cccc(F)c1-c1ncc2[nH]nc(-c3ccc(N4CCC(O)C4)cc3)c2n1` (stereo not shown) [Example 60, 1-(4-(5-(2-Fluoro-6-methylphenyl)-1H-pyrazolo[4,3-d]pyrimidin-3-yl)phenyl)pyrrolidin-3-ol], the inhibitory constant (Ki) is no more than 100 nM.
Take `COc1cccc(F)c1-c1ncc2[nH]nc(-c3ccnc(N4CCN(C)CC4)c3)c2n1` [Example 51, 5-(2-Fluoro-6-methoxyphenyl)-3-(2-(4-methylpiperazin-1-yl)pyridin-4-yl)-1H-pyrazolo[4,3-d]pyrimidine]: the Ki is no more than 100 nM.
On to `CNCc1cc(F)c(-c2ncc3[nH]nc(-c4ccc(N5CCCC(C)(CO)C5)nc4)c3n2)c(F)c1` (stereo not shown) [Example 71, (1-(5-(5-(2,6-Difluoro-4-((methylamino)methyl)phenyl)-1H-pyrazolo[4,3-d]pyrimidin-3-yl)pyridin-2-yl)-3-methylpiperidin-3-yl)methanol], for which the inhibition constant (Ki) was no more than 100 nM.
Turning to `CC(=O)N1CCN(c2ccc(-c3n[nH]c4cnc(-c5c(F)cc6c(c5C)CNCC6)nc34)cc2)CC1` [Example 108, 1-(4-(4-(5-(6-Fluoro-8-methyl-1,2,3,4-tetrahydroisoquinolin-7-yl)-1H-pyrazolo[4,3-d]pyrimidin-3-yl)phenyl)piperazin-1-yl)ethanone], the Ki is no more than 100 nM.
As for `Cc1cccc(F)c1-c1ncc2[nH]nc(-c3ccc(N4CCC(C#N)CC4)cc3)c2n1` [Example 58, 1-(4-(5-(2-Fluoro-6-methylphenyl)-1H-pyrazolo[4,3-d]pyrimidin-3-yl)phenyl)piperidine-4-carbonitrile], the Ki is no more than 100 nM.
The figure for `COc1cccc(F)c1-c1ncc2[nH]nc(-c3ccccc3)c2n1` [Example 12, 5-(2-Fluoro-6-methoxyphenyl)-3-phenyl-1H-pyrazolo[4,3-d]pyrimidine] is no more than 100 nM; for `CNC(=O)c1cccc(-c2ncc3[nH]nc(-c4ccc(N5CCN(C)CC5)cc4)c3n2)c1F` [Example 47, 2-Fluoro-N-methyl-3-(3-(4-(4-methylpiperazin-1-yl)phenyl)-1H-pyrazolo[4,3-d]pyrimidin-5-yl)benzamide] it is 100 to 500 nM.
Under `OCCNc1ncc(-c2n[nH]c3cnc(-c4c(F)cc5c(c4F)CNCC5)nc23)cn1` [Example 91, 2-(5-(5-(6,8-Difluoro-1,2,3,4-tetrahydroisoquinolin-7-yl)-1H-pyrazolo[4,3-d]pyrimidin-3-yl)pyrimidin-2-ylamino)ethanol] stands no more than 100 nM.
The figure for `COc1cccc(F)c1-c1ncc2[nH]nc(OCc3ccccc3)c2n1` [Example 89, 3-(Benzyloxy)-5-(2-fluoro-6-methoxyphenyl)-1H-pyrazolo[4,3-d]pyrimidine] is no more than 100 nM.
`Cc1cccc(F)c1-c1ncc2[nH]nc(-c3ccc(N4CCCC(O)C4)cc3)c2n1` (stereo not shown) [Example 57, 1-(4-(5-(2-Fluoro-6-methylphenyl)-1H-pyrazolo[4,3-d]pyrimidin-3-yl)phenyl)piperidin-3-ol] came in with a Ki of no more than 100 nM.
Under `COc1cccc(F)c1-c1ncc2[nH]nc(-c3ccccc3C)c2n1` [Example 20, 5-(2-Fluoro-6-methoxyphenyl)-3-o-tolyl-1H-pyrazolo[4,3-d]pyrimidine] stands 500 to 5000 nM; under `CNCc1cc(F)c(-c2ncc3[nH]nc(-c4ccc(C5CCOCC5)cc4)c3n2)c(F)c1` [Example 66, 1-(3,5-Difluoro-4-(3-(4-(tetrahydro-2H-pyran-4-yl)phenyl)-1H-pyrazolo[4,3-d]pyrimidin-5-yl)phenyl)-N-methylmethanamine], no more than 100 nM; under `CNCc1cc(F)c(-c2ncc3[nH]nc(-c4ccc(C(=O)NC)c(F)c4)c3n2)c(F)c1` [Example 62, 4-(5-(2,6-Difluoro-4-((methylamino)methyl)phenyl)-1H-pyrazolo[4,3-d]pyrimidin-3-yl)-2-fluoro-N-methylbenzamide], no more than 100 nM.
The figure for `CS(=O)(=O)NCc1ccc(-c2n[nH]c3cnc(-c4c(F)cc5c(c4F)CNCC5)nc23)cc1` [Example 95, N-(4-(5-(6,8-Difluoro-1,2,3,4-tetrahydroisoquinolin-7-yl)-1H-pyrazolo[4,3-d]pyrimidin-3-yl)benzyl)methanesulfonamide] is no more than 100 nM.
Under `COc1cccc(F)c1-c1ncc2[nH]nc(-c3ccccc3F)c2n1` [Example 13, 5-(2-Fluoro-6-methoxyphenyl)-3-(2-fluorophenyl)-1H-pyrazolo[4,3-d]pyrimidine] stands 100 to 500 nM; under `CNCc1cc(F)c(-c2ncc3[nH]nc(-c4cccc(C#N)c4)c3n2)c(F)c1` [Example 64, 3-(5-(2,6-Difluoro-4-((methylamino)methyl)phenyl)-1H-pyrazolo[4,3-d]pyrimidin-3-yl)benzonitrile], no more than 100 nM.
In turn, `CN1CCN(c2cc(-c3n[nH]c4cnc(-c5c(F)cc6c(c5F)CNCC6)nc34)ccn2)CC1` [Example 90, 6,8-Difluoro-7-(3-(2-(4-methylpiperazin-1-yl)pyridin-4-yl)-1H-pyrazolo[4,3-d]pyrimidin-5-yl)-1,2,3,4-tetrahydroisoquinoline] displayed an inhibition constant Ki of no more than 100 nM.
Under `COc1cccc(F)c1-c1ncc2[nH]nc(-c3ccc(N4CCOCC4)nc3)c2n1` [Example 53, 4-(5-(5-(2-Fluoro-6-methoxyphenyl)-1H-pyrazolo[4,3-d]pyrimidin-3-yl)pyridin-2-yl)morpholine] stands no more than 100 nM.
`COc1cccc(F)c1-c1ncc2[nH]nc(-c3ccc(C(=O)NC4CCCC4)cc3)c2n1` [Example 32, N-Cyclopentyl-4-(5-(2-fluoro-6-methoxyphenyl)-1H-pyrazolo[4,3-d]pyrimidin-3-yl)benzamide] showed an inhibition constant Ki of no more than 100 nM.
`CN1CCN(c2ncc(-c3n[nH]c4cnc(-c5c(F)cc6c(c5F)CNCC6)nc34)cn2)CC1` [Example 92, 6,8-Difluoro-7-(3-(2-(4-methylpiperazin-1-yl)pyrimidin-5-yl)-1H-pyrazolo[4,3-d]pyrimidin-5-yl)-1,2,3,4-tetrahydroisoquinoline] came in with a Ki of no more than 100 nM.
Compound `CNCc1cc(F)c(-c2ncc3[nH]nc(-c4ccc(N5CCN(CCO)CC5)cc4)c3n2)c(F)c1` [Example 73, 2-(4-(4-(5-(2,6-Difluoro-4-((methylamino)methyl)phenyl)-1H-pyrazolo[4,3-d]pyrimidin-3-yl)phenyl)piperazin-1-yl)ethanol] yielded a Ki of no more than 100 nM.
As for `CNC1CCCc2c1ccc(F)c2-c1ncc2[nH]nc(-c3ccc(N4CCN(C)CC4)nc3)c2n1` (stereo not shown) [Example 120, 6-Fluoro-N-methyl-5-(3-(6-(4-methylpiperazin-1-yl)pyridin-3-yl)-1H-pyrazolo[4,3-d]pyrimidin-5-yl)-1,2,3,4-tetrahydronaphthalen-1-amine], the inhibitory constant (Ki) is no more than 100 nM.

Values taken from patent publication US11014929B2, “Pyrazolopyrimidine compounds and uses thereof” (Incyte Corporation, priority 2016, dated 2021).
